Source: a melting point compilation (Tetko et al.)
Residues, ends and D or L forms follow the SMILES beside them. *: point of attachment. Trt = c1ccc(C(c2ccccc2)(c2ccccc2)*)cc1; Boc = CC(C)(C)OC(=O)*

melting point	Structure (SMILES)
133 °C	N=S(=O)(c1ccccc1)c1cccs1 (configuration not stated)
52 to 55 °C	CCOC(=O)c1cnc2c(c(C)nn2C)c1NCS(=O)(=O)c1ccc(Oc2ccc(Cl)cc2)cc1
185 to 200 °C	COC(=O)c1cc(C(C)(C)C)c(OP2OP(Oc3c(C(C)(C)C)cc(C(=O)OC)cc3C(C)(C)C)OP(Oc3c(C(C)(C)C)cc(C(=O)OC)cc3C(C)(C)C)O2)c(C(C)(C)C)c1 (configuration not stated)
152 to 156 °C	CCCCc1nc2c(N)nc3ccccc3c2n1CCCCNC(=O)Nc1ccc(Oc2ccc(NC(=O)NCCCCn3c(CCCC)nc4c(N)nc5ccccc5c43)cc2)cc1
208 to 210 °C	CCCCCCCCCCCCCCCCCCN(Cc1c(C)cc(C(C)(C)C)c(O)c1C)S(=O)(=O)c1ccc(-c2ccc(S(=O)(=O)N(CCCCCCCCCCCCCCCCCC)Cc3c(C)cc(C(C)(C)C)c(O)c3C)cc2)cc1
139 to 141 °C	CCOc1cc(C(=O)N2CCC(CCN3CCC(C(=O)c4nc5ccccc5n4Cc4ccc(F)cc4)CC3)(c3ccc(OC)c(OC)c3)C2)cc(OCC)c1OCC (configuration not stated)
127 to 129 °C	CCO/N=C(\C)[C@H]1CC[C@H]2[C@@H]3CCC4=CC(=O)CC[C@]4(C)[C@H]3CC[C@]12C
160 to 165 °C	CCOC(=O)C(C)OC(=O)c1c(I)c(NC(C)=O)c(I)c(C(=O)OC(C)C(=O)OCC)c1I (configuration not stated)
153 to 158 °C	CCCCCCc1cc(C=C2C(=O)N(CC(CC)CCCC)C(=O)C(C#N)=C2C)sc1-c1ccc(-c2ccc(-c3sc(-c4ccc(N(c5ccccc5)c5ccccc5)cc4)cc3CCCCCC)s2)s1 (configuration not stated)
110 °C	CCCCCCCCCCCCSc1cc(SCCCCCCCCCCCC)c2ccc3c(SCCCCCCCCCCCC)cc(SCCCCCCCCCCCC)c4ccc1c2c43
179 to 180 °C	COc1cc(OC)c(/C=C/C(c2ccc(OC)c(NC(=O)C(F)(F)C(F)(F)F)c2)S(=O)(=O)C(/C=C/c2c(OC)cc(OC)cc2OC)c2ccc(OC)c(NC(=O)C(F)(F)C(F)(F)F)c2)c(OC)c1 (configuration not stated)
101 to 103 °C	CC(C)CCCC(C)C1CCC2C3CC=C4CC(NCCCCC(=O)NCCC(=O)NCCC(=O)NCCCCC(C(=O)O)N(CC(=O)O)CC(=O)O)CCC4(C)C3CCC12C (configuration not stated)
249 to 252 °C	CC(C)(C)c1cc2c(c(C(C)(C)C)c1)OP(OP1Oc3c(cc(C(C)(C)C)cc3C(C)(C)C)Cc3cc(C(C)(C)C)cc(C(C)(C)C)c3O1)Oc1c(cc(C(C)(C)C)cc1C(C)(C)C)C2
156 to 160 °C	CC(C)(C)OC(=O)NCc1ccc(CNC(=O)N2CCN(C(=O)CN3CCC(=O)N(CC(=O)N4CCN(C(=O)NCc5ccc(CNC(=O)OC(C)(C)C)cc5)CC4)CCC3=O)CC2)cc1
170 to 172 °C	O=P(O)(C(F)(F)C(F)(F)C(F)(F)C(F)(F)C(F)(F)C(F)(F)C(F)(C(F)(F)F)C(F)(F)F)C(F)(F)C(F)(F)C(F)(F)C(F)(F)C(F)(F)C(F)(F)C(F)(C(F)(F)F)C(F)(F)F
238 to 240 °C	COC(=O)C(Cc1ccccc1)NC(=O)C(Cc1ccccc1)NC(=O)C(CC(N)=O)NC(=O)C(CCCCNC(=O)OC(C)(C)C)NC(=O)C(CSC(c1ccccc1)(c1ccccc1)c1ccccc1)NC(=O)CNC(=O)C(C)NC(=O)CNC(=O)CNC(=O)C(CC(C)C)NC(=O)OC(C)(C)C (configuration not stated) (Boc-LGGAGC(Trt)K(Boc)NFF-OMe; configuration not given here)
36 to 37 °C	CCCCCCCCCCCCCCCCCC(=O)OCC=C(C)CCC=C(C)CCC=C(C)CCC=C(C)CCC=C(C)CCC=C(C)CCC=C(C)CCC=C(C)CCC=C(C)C
54.5 °C	C=CC(=O)OCCCCCCOc1ccc(C(=O)Oc2ccc(OC(=O)c3ccc(OCCCCCCOC(=O)C=C)cc3)c(C(=O)OCCCCCCCCOc3ccc(C#N)cc3)c2)cc1
85 to 87 °C	CCCCCCCCCCCCCCCCCCN(CCCCCCCCCCCCCCCCCC)C(=O)c1cc(NS(=O)(=O)c2cnc(Cl)c(OC)c2)c2ccccc2c1O
110 to 113 °C	CS(C)(=O)=NC(=O)c1cccc(Oc2ccc(C(F)(F)F)cc2Cl)c1
195 to 197 °C	O=C(O)c1ccnc(F)c1
142 to 148 °C	COc1ccc(N2C(=O)C3Cc4[nH]cnc4CN3C2=O)cc1 (configuration not stated)
